Measurements from ChEMBL document CHEMBL4265914, “Discovery of selective urokinase plasminogen activator (uPA) inhibitors as a potential treatment for multiple sclerosis” (Bioorg Med Chem Lett, 2018).
Calls of active or inactive are those of the source. The calls are words filed in the database; no cut-off is given here.

Legend:
[1] = target: Urokinase-type plasminogen activator (Homo sapiens, UniProt P00749); assay: Inhibition of human uPA
[2] = target: Tissue-type plasminogen activator (Homo sapiens, UniProt P00750); assay: Inhibition of human tPA
Chain of Tissue-type plasminogen activator (Homo sapiens, UniProt P00750) (P00750 whole entry): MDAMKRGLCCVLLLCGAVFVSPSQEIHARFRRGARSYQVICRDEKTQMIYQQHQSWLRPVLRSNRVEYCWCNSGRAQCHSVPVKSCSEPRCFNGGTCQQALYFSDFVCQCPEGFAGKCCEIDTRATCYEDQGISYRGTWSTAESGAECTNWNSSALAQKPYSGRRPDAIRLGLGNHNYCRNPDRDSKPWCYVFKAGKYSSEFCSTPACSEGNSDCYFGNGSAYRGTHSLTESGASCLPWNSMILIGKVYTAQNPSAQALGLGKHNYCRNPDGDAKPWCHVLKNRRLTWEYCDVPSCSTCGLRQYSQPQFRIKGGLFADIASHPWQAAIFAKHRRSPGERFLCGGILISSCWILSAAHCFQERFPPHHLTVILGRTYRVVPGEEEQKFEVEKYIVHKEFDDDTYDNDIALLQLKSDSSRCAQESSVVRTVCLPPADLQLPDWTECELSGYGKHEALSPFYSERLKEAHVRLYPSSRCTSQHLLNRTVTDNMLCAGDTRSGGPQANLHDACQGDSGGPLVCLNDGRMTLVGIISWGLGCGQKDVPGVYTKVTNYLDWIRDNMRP

Plasminogen [3] = target: Plasminogen (Homo sapiens, UniProt P00747); assay: Inhibition of human plasmin
Chain of Plasminogen (Homo sapiens, UniProt P00747) (P00747 97-580 limits assumed): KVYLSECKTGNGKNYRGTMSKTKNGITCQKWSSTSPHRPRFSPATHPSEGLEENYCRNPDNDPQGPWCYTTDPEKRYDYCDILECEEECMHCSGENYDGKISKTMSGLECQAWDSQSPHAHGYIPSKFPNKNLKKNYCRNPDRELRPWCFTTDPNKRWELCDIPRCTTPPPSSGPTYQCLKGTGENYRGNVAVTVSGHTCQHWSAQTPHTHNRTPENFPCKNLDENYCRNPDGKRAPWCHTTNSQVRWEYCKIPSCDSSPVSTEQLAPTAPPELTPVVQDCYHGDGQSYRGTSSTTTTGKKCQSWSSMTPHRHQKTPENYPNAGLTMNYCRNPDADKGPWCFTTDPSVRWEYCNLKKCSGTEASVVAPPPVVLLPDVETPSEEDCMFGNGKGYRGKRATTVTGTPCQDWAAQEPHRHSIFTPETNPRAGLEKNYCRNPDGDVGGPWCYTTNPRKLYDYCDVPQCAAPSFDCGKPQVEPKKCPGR
Chain of Plasminogen (Homo sapiens, UniProt P00747) (P00747 581-810 limits assumed): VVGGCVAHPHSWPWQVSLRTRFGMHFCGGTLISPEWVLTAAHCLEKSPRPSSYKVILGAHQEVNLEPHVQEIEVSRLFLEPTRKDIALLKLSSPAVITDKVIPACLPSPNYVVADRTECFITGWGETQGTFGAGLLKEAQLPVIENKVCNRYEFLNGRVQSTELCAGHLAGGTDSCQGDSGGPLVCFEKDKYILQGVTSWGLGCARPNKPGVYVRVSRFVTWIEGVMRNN

[4] = Half life in rat at 2 mg/kg, po; assay type: ADME, organism-based; details: in vivo
[5] = Cmax in rat at 2 mg/kg, po; assay type: ADME, organism-based; parameters: dose 2 mg/kg, route oral; details: in vivo
Rattus norvegicus [6] = assay: Volume of distribution in rat at 2 mg/kg, po; assay type: ADME, organism-based; details: in vivo
[7] = Clearance in rat at 2 mg/kg, po; assay type: ADME, organism-based; details: in vivo
[8] = Oral bioavailability in rat at 2 mg/kg; assay type: ADME, organism-based; details: in vivo
Rattus norvegicus [9] = assay: Total AUC in rat at 2 mg/kg, po; assay type: ADME, organism-based; parameters: dose 2 mg/kg, route oral, time AUCmax; details: in vivo
Mus musculus [10] = assay: Prevention of multiple sclerosis development in chronic SJL mouse EAE model at 50 mg/kg, po bid; assay type: functional, organism-based
[11] = target: Tissue-type plasminogen activator (Mus musculus, UniProt P11214); assay: Inhibition of mouse tPA
Chain of Tissue-type plasminogen activator (Mus musculus, UniProt P11214) (P11214 whole entry): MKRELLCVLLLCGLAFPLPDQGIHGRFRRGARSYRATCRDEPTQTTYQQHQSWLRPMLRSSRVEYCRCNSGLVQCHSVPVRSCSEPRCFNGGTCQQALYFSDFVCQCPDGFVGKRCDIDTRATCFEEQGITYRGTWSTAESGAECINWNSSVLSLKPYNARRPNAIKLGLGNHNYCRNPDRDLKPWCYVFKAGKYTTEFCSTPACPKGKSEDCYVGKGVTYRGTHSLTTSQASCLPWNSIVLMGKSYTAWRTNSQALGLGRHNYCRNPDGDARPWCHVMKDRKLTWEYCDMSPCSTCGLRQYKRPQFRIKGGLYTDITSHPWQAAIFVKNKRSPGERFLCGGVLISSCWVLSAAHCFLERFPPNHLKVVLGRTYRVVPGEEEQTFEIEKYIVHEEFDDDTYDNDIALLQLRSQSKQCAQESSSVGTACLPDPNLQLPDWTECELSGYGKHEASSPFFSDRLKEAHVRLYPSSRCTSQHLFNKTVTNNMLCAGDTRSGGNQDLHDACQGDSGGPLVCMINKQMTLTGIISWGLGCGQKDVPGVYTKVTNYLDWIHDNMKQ

[12] = target: Urokinase-type plasminogen activator (Mus musculus, UniProt P06869); assay: Inhibition of mouse uPA
Chain of Urokinase-type plasminogen activator (Mus musculus, UniProt P06869) (P06869 21-178 limits assumed): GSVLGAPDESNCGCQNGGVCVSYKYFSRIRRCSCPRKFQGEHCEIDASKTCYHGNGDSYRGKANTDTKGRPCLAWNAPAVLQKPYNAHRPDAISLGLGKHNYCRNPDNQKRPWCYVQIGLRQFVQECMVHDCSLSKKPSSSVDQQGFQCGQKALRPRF
Chain of Urokinase-type plasminogen activator (Mus musculus, UniProt P06869) (P06869 180-433 limits assumed): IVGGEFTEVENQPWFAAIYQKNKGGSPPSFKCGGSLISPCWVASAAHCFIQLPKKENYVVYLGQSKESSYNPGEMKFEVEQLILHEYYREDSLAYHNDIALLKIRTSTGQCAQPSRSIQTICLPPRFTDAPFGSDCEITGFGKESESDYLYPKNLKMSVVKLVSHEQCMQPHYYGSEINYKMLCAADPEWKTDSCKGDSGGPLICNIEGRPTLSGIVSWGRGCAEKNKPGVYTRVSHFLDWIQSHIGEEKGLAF

Mus musculus [13] = assay: Prevention of multiple sclerosis development in chronic SJL mouse EAE model at 10 to 25 mg/kg, po bid; assay type: functional, organism-based
Plasminogen [14] = target: Plasminogen (Mus musculus, UniProt P20918); assay: Inhibition of mouse plasmin
Chain of Plasminogen (Mus musculus, UniProt P20918) (P20918 98-581 limits assumed): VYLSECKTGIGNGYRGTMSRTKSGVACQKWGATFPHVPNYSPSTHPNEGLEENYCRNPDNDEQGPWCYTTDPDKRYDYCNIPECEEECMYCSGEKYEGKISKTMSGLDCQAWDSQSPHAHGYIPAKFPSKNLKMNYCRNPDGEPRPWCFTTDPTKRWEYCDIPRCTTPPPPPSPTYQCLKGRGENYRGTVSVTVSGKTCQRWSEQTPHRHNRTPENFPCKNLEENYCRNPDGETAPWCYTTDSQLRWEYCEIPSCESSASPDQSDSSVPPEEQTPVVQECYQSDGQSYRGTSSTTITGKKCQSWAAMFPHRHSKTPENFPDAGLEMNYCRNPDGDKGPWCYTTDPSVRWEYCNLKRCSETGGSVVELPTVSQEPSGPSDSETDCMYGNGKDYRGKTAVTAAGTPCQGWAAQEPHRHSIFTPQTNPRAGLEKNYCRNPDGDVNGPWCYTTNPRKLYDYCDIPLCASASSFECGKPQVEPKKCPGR
Chain of Plasminogen (Mus musculus, UniProt P20918) (P20918 582-812 limits assumed): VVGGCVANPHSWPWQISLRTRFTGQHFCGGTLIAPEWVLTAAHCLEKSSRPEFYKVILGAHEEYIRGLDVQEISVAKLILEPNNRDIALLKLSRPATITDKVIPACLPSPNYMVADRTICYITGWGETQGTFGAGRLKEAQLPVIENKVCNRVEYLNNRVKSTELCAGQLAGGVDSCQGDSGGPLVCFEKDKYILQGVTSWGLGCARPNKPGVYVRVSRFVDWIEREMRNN

Mus musculus [15] = assay: Prevention of multiple sclerosis development in acute SJL mouse EAE model at 25 to 50 mg/kg, po bid; assay type: functional, organism-based

Row | SMILES | IC50 [1] [nM] | IC50 [2] [nM] | IC50 (Plasminogen [3]) [nM] | also measured
1 | NCc1cccc(-c2cccc(Oc3nc(OCC(=O)O)c(F)cc3F)c2)c1 | 3280 | – | – | –
2 | Cc1cc(Oc2nc(O[C@@H](C(=O)O)C(C)(C)C)c(F)cc2F)cc(-c2cccc(CN)c2)c1 | 51 | 470 | 1900 | –
3 | CC[C@@H](Oc1nc(Oc2cccc(-c3cccc(CN)c3)c2)c(F)cc1F)C(=O)O | 237 | 1600 | 1850 | half-life [4]: 2.8 h; Cmax [5]: 640 ng/mL; Vd (Rattus norvegicus [6]): 0.76 L/kg; CL/F [7]: 8.4 mL/min/kg; bioavailability [8]: 55%; AUC (Rattus norvegicus [9]): 2200 ng·h/mL
4 | CC[C@@H](Oc1nc(Oc2cc(C)cc(-c3cccc(CN)c3)c2)c(F)cc1F)C(=O)O | 79 | 1580 | 1330 | half-life [4]: 2.2 h; Activity (Mus musculus [10]): Active; IC50 [11]: 910 nM; IC50 [12]: 410 nM; Vd (Rattus norvegicus [6]): 0.6 L/kg; CL/F [7]: 4 mL/min/kg; bioavailability [8]: 30%; Activity (Mus musculus [13]): inactive; IC50 (Plasminogen [14]): 1600 nM; Activity (Mus musculus [15]): Active; AUC (Rattus norvegicus [9]): 13200 ng·h/mL
5 | C[C@@H](Oc1nc(Oc2cccc(-c3cccc(CN)c3)c2)c(F)cc1F)C(=O)O | 360 | – | 5100 | –
6 | CC(C)(C)[C@@H](Oc1nc(Oc2cccc(-c3cccc(CN)c3)c2)c(F)cc1F)C(=O)O | 84 | 1450 | 5450 | –
7 | CC[C@H](Oc1nc(Oc2cccc(-c3cccc(CN)c3)c2)c(F)cc1F)C(=O)O | 7260 | > 30000 | > 30000 | –
8 | CC(C)(C)[C@@H](Oc1nc(Oc2cc(C#N)cc(-c3cccc(CN)c3)c2)c(F)cc1F)C(=O)O | 34 | 5700 | 5400 | –
9 | COc1cc(Oc2nc(O[C@@H](C(=O)O)C(C)(C)C)c(F)cc2F)cc(-c2cccc(CN)c2)c1 | 23 | 1850 | 3320 | –
